IC50 and EC50 data for 26 compounds are collected here from patent publication US9169252B2 (BRISTOL-MYERS SQUIBB COMPANY, priority 2014, dated 2015).

Structures are written as SMILES.

Assay [1] concerns the target IRAK4 (Homo sapiens (Human), UniProt Q9NWZ3). Nature of the assay: IRAK4 Inhibition Assay. It counts as biochemical. The following applies: IRAK4 Inhibition Assay; ATP 500 μM; read-out: IRAK4 IC50. The procedure, abridged:
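IRAK4 combined with fluorescent substrate and compounds, reacted 60 min at room temperature, stopped with 35 mM EDTA. Substrate and phosphorylated product separated electrophoretically on a Caliper LabChip 3000 mobility-shift reader.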

The subject of assay [2] is TLR2 induced IL-6 in peripheral blood mononuclear cells (PBMCs). The assay can be described thus: PBMC TLR2 Induced IL-6 Assay. In kind it is cell-based, human. The settings on record: Homo sapiens, PBMC, PBMC TLR2 Induced IL-6 Assay; lipoteichoic acid stimulation, IL-6 by ELISA; read-out: Cell EC50. A digest of the protocol: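 Lipoteichoic acid at 10 µg/ml served as TLR2 stimulus for 5 hours, following a 30-minute compound pretreatment at 37° C. Cells were Ficoll-isolated human PBMCs, 250000 cells/well, cultured in RPMI plus 10% heat-inactivated FCS.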
Background: ELISA stands for enzyme-linked immunosorbent assay.

Chain of IRAK4 (Q9NWZ3 whole entry, species assumed): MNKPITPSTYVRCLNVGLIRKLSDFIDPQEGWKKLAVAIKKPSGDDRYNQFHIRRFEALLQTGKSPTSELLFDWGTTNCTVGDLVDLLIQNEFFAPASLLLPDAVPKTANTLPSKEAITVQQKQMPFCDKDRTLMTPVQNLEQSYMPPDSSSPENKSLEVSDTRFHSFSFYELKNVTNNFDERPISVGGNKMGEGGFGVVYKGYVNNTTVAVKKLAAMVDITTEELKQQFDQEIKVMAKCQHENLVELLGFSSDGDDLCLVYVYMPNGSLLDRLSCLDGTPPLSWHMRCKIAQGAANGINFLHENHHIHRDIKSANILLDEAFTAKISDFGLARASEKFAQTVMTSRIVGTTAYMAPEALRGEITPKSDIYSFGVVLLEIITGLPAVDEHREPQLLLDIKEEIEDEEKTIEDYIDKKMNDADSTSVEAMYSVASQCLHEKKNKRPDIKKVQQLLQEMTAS

As a reminder, the IC50 is the concentration that gives 50% inhibition. In general, EC50 refers to the concentration that produces a half-maximal response. Consider `CC(=O)OC(C)(C)C(=O)NCCNC(=O)c1cnc(-n2ccc3cc(C#N)cnc32)cc1NC(C)C` [Example 125, 1-((2-(6-(5-Cyano-1H-pyrrolo[2,3-b]pyridin-1-yl)-4-(isopropylamino)nicotinamido)ethyl)amino)-2-methyl-1-oxopropan-2-yl acetate], for which the IC50 in assay [1] was found to be 0.0067 µM. The concentration giving a half-maximal response (EC50) in assay [2] came out at 0.202 µM.
As to `CC(C)Nc1cc(-n2ccc3cc(C#N)cnc32)ncc1C(=O)NCCNC(=O)C(C)(C)O` [Example 126, 6-(5-Cyano-1H-pyrrolo[2,3-b]pyridin-1-yl)-N-(2-(2-hydroxy-2-methylpropanamido)ethyl)-4-(isopropylamino)nicotinamide], the half-maximal inhibitory concentration (IC50) in assay [1] worked out at 0.0075 µM. Further, in assay [2], the half-maximal effective concentration (EC50) was 0.15 µM.
For `COC[C@H](F)CNC(=O)c1cnc(-n2ccc3cc(C#N)cnc32)cc1NC(C)C` [Example 127, (R)-6-(5-Cyano-1H-pyrrolo[2,3-b]pyridin-1-yl)-N-(2-fluoro-3-methoxypropyl)-4-(isopropylamino)nicotinamide] the same measures were 0.0028 µM and 0.089 µM.
For `COC[C@H](F)CNC(=O)c1cnc(-n2ncc3cc(C#N)cnc32)cc1NC(C)C` [Example 128, (R)-6-(5-Cyano-1H-pyrazolo[3,4-b]pyridin-1-yl)-N-(2-fluoro-3-methoxypropyl)-4-(isopropylamino)nicotinamide] the same measures were 0.0089 µM and 0.248 µM.
The corresponding values for `CC(C)(O)[C@H](F)CNC(=O)c1cnc(-n2ccc3cc(C#N)cnc32)cc1NC(CO)CF` (stereo partly drawn) [Example 131, 6-(5-Cyano-1H-pyrrolo[2,3-b]pyridin-1-yl)-N—((R)-2-fluoro-3-hydroxy-3-methylbutyl)-4-((1-fluoro-3-hydroxypropan-2-yl)amino)nicotinamide] are 0.0068 µM and 0.41 µM.
On to `CNC(=O)[C@H](F)CNC(=O)c1cnc(-n2ccc3cc(C#N)cnc32)cc1NC1CC1` [Example 132, (R)-6-(5-Cyano-1H-pyrrolo[2,3-b]pyridin-1-yl)-4-(cyclopropylamino)-N-(2-fluoro-3-(methylamino)-3-oxopropyl)nicotinamide], for which the IC50 in assay [1] was found to be 0.0047 µM. Moreover, the 50% effective concentration (EC50) in assay [2] was found to be 0.092 µM.
In the case of `CC(C)Nc1cc(-n2ncc3cc(C#N)cnc32)ncc1C(=O)NC[C@@H](F)C(C)(C)O` [Example 133, (R)-6-(5-Cyano-1H-pyrazolo[3,4-b]pyridin-1-yl)-N-(2-fluoro-3-hydroxy-3-methylbutyl)-4-(isopropylamino)nicotinamide], the concentration for half-maximal inhibition (IC50) in assay [1] is 0.0026 µM. Further, the concentration for a half-maximal effect (EC50) in assay [2] came out at 0.12 µM.
Take `CCNc1cc(-n2ncc3cc(C#N)cnc32)ncc1C(=O)NC[C@@H](F)C(C)(C)O` [Example 138, (R)-6-(5-cyano-1H-pyrazolo[3,4-b]pyridin-1-yl)-4-(ethylamino)-N-(2-fluoro-3-hydroxy-3-methylbutyl)nicotinamide]: in assay [1], the concentration for half-maximal inhibition (IC50) is 0.0064 µM. Besides, in assay [2], the half-maximal effective concentration (EC50) was 0.152 µM.
The corresponding values for `CC(C)(O)[C@H](F)CNC(=O)c1cnc(-n2ncc3cc(C#N)cnc32)cc1NC1CC1` [Example 139, (R)-6-(5-cyano-1H-pyrazolo[3,4-b]pyridin-1-yl)-4-(cyclopropylamino)-N-(2-fluoro-3-hydroxy-3-methylbutyl)nicotinamide] are 0.0029 µM and 0.118 µM.
For `CNC(=O)[C@H]1CC[C@H](NC(=O)c2cnc(-n3ncc4cc(C#N)cnc43)cc2NC2CC2)CC1` [Example 140, 6-(5-cyano-1H-pyrazolo[3,4-b]pyridin-1-yl)-4-(cyclopropylamino)-N-((trans)-4-(methylcarbamoyl)cyclohexyl)nicotinamide], in assay [1], the half-inhibitory concentration (IC50) was 0.0083 µM. For the same compound, the 50% effective concentration (EC50) in assay [2] amounted to 0.226 µM.
On to `CC(C)(O)[C@H](F)CNC(=O)c1cnc(-n2ncc3cc(C#N)cnc32)cc1NC1CCOCC1` [Example 141, (R)-6-(5-cyano-1H-pyrazolo[3,4-b]pyridin-1-yl)-N-(2-fluoro-3-hydroxy-3-methylbutyl)-4-((tetrahydro-2H-pyran-4-yl)amino)nicotinamide], for which the IC50 in assay [1] worked out at 0.0022 µM. Further, in assay [2], the EC50 came out at 0.087 µM.
The corresponding values for `CC(C)Nc1cc(-n2ncc3cncnc32)ncc1C(=O)NC[C@@H](F)C(C)(C)O` [Example 144, (R)—N-(2-fluoro-3-hydroxy-3-methylbutyl)-4-(isopropylamino)-6-(1H-pyrazolo[3,4-d]pyrimidin-1-yl)nicotinamide] are 0.0062 µM and 0.148 µM.
The corresponding values for `CC(C)(O)[C@H](F)CNC(=O)c1cnc(-n2ncc3cc(C#N)cnc32)cc1NC1CCC1` [Example 145, (R)-6-(5-cyano-1H-pyrazolo[3,4-b]pyridin-1-yl)-4-(cyclobutylamino)-N-(2-fluoro-3-hydroxy-3-methylbutyl)nicotinamide] are 0.0045 µM and 0.061 µM.
For `CC(C)Nc1cc(-n2ncc3cc(C#N)cnc32)ncc1C(=O)NCCC(C)(C)O` [Example 146, 6-(5-cyano-1H-pyrazolo[3,4-b]pyridin-1-yl)-N-(3-hydroxy-3-methylbutyl)-4-(isopropylamino)nicotinamide] the same measures were 0.0065 µM and 0.267 µM.
With `CC(C)(O)[C@H](F)CNC(=O)c1cnc(-n2ncc3cc(C#N)cnc32)cc1NCC(F)(F)F` [Example 147, (R)-6-(5-cyano-1H-pyrazolo[3,4-b]pyridin-1-yl)-N-(2-fluoro-3-hydroxy-3-methylbutyl)-4-((2,2,2-trifluoroethyl)amino)nicotinamide], in assay [1], the IC50 is 0.0119 µM. Besides, in assay [2], the concentration for a half-maximal effect (EC50) was 0.338 µM.
The corresponding values for `CC(C)Nc1cc(-n2ncc3cc(C#N)cnc32)ncc1C(=O)N[C@H]1CC[C@H](C(C)(C)O)CC1` [Example 148, 6-(5-cyano-1H-pyrazolo[3,4-b]pyridin-1-yl)-N-((trans)-4-(2-hydroxypropan-2-yl)cyclohexyl)-4-(isopropylamino)nicotinamide] are 0.0014 µM and 0.064 µM.
For `CCC(O)(CC)[C@H](F)CNC(=O)c1cnc(-n2ncc3cncnc32)cc1NC(C)C` [Example 149, (R)—N-(3-ethyl-2-fluoro-3-hydroxypentyl)-4-(isopropylamino)-6-(1H-pyrazolo[3,4-d]pyrimidin-1-yl)nicotinamide] the same measures were 0.0093 µM and 0.239 µM.
For `CC(C)Nc1cc(-n2ncc3cc(Cl)cnc32)ncc1C(=O)N[C@H]1CC[C@H](C(C)(C)O)CC1` [Example 150, 6-(5-chloro-1H-pyrazolo[3,4-b]pyridin-1-yl)-N-((trans)-4-(2-hydroxypropan-2-yl)cyclohexyl)-4-(isopropylamino)nicotinamide] the same measures were 0.009 µM and 0.593 µM.
In the case of `CC(C)(O)CCNC(=O)c1cnc(-n2ncc3cc(C#N)cnc32)cc1NC1CCOCC1` [Example 151, 6-(5-cyano-1H-pyrazolo[3,4-b]pyridin-1-yl)-N-(3-hydroxy-3-methylbutyl)-4-((tetrahydro-2H-pyran-4-yl)amino)nicotinamide], in assay [1], the IC50 was 0.0148 µM. Besides, the concentration giving a half-maximal response (EC50) in assay [2] was 0.443 µM.
Take `CNC(=O)[C@H]1CC[C@H](NC(=O)c2cnc(-n3ncc4cc(Cl)cnc43)cc2NC(C)C)CC1` [Example 152, 6-(5-chloro-1H-pyrazolo[3,4-b]pyridin-1-yl)-4-(isopropylamino)-N-((trans)-4-(methylcarbamoyl)cyclohexyl)nicotinamide]: the IC50 in assay [1] worked out at 0.0056 µM. Further, the 50% effective concentration (EC50) in assay [2] stood at 0.294 µM.
The corresponding values for `CC(C)Nc1cc(-n2ncc3cc(Cl)cnc32)ncc1C(=O)NCCN1CCOCC1` [Example 154, 6-(5-chloro-1H-pyrazolo[3,4-b]pyridin-1-yl)-4-(isopropylamino)-N-(2-morpholinoethyl)nicotinamide] are 0.012 µM and 0.584 µM.
The corresponding values for `Cc1cnc2c(cnn2-c2cc(NC(C)C)c(C(=O)NC[C@@H](F)C(C)(C)O)cn2)c1` [Example 155, (R)—N-(2-fluoro-3-hydroxy-3-methylbutyl)-4-(isopropylamino)-6-(5-methyl-1H-pyrazolo[3,4-b]pyridin-1-yl)nicotinamide] are 0.007 µM and 0.164 µM.
For `CC(C)(O)[C@H](F)CNC(=O)c1cnc(-n2ncc3cc(F)cnc32)cc1NC1CC1` [Example 156, (R)-4-(cyclopropylamino)-6-(5-fluoro-1H-pyrazolo[3,4-b]pyridin-1-yl)-N-(2-fluoro-3-hydroxy-3-methylbutyl)nicotinamide] the same measures were 0.0095 µM and 0.231 µM.
For the compound `CC(C)Nc1cc(-n2ncc3cc(F)cnc32)ncc1C(=O)NC[C@@H](F)C(C)(C)O` [Example 157, (R)-6-(5-fluoro-1H-pyrazolo[3,4-b]pyridin-1-yl)-N-(2-fluoro-3-hydroxy-3-methylbutyl)-4-(isopropylamino) nicotinamide], the 50% inhibitory concentration (IC50) in assay [1] came out at 0.0053 µM. Further, the EC50 in assay [2] worked out at 0.097 µM.
The corresponding values for `CC(C)Nc1cc(-n2ncc3cc(Br)cnc32)ncc1C(=O)NC[C@@H](F)C(C)(C)O` [Example 158, (R)-6-(5-Bromo-1H-pyrazolo[3,4-b]pyridin-1-yl)-N-(2-fluoro-3-hydroxy-3-methylbutyl)-4-(isopropylamino)nicotinamide] are 0.0042 µM and 0.127 µM.
For `CC(C)(O)[C@H](F)CNC(=O)c1cnc(-n2ncc3cc(C#N)cnc32)cc1N[C@H]1CC[C@H](O)CC1` [Example 159, 6-(5-cyano-1H-pyrazolo[3,4-b]pyridin-1-yl)-N—((R)-2-fluoro-3-hydroxy-3-methylbutyl)-4-(((trans)-4-hydroxycyclohexyl)amino)nicotinamide] the same measures were 0.0024 µM and 0.112 µM.
